By Ki is commonly meant a measure of affinity in units of concentration, obtained from inhibition or displacement. Read a high Ki as weaker binding.

The source made the active and inactive calls. The rule behind the calls is not given here.

The values that follow come from ChEMBL document CHEMBL4823295, “Design, synthesis and preliminary bioactivity evaluation of bitopic benzopyranomorpholine analogues as selective dopamine D3 receptor ligands as anti-drug addiction therapeutic agents” (Bioorg Med Chem Lett, 2021).

In data set [1] the test system is Mus musculus. Description: Anti-addiction activity in naloxone-induced withdrawal symptoms in morphine-dependent mouse model assessed as inhibition of naloxone-induced body weight loss at 50 mg/kg, ip administered 60 mins prior to naloxone injection and measured after 2 hrs of naloxone injection. Type of data set: functional, organism-based. The following applies: time 3.0 hrs.

A short description of data set [2]: Toxicity in naloxone-induced withdrawal symptoms in morphine-dependent mouse model assessed as convulsions at 50 mg/kg, ip administered 60 mins prior to naloxone injection. Conditions: in vivo, 1 h. Type of data set: organism-based.
The species named for data set [3] is Homo sapiens. Description: Selectivity ratio of Ki for human D2 receptor transfected in HEK293 cell membrane to Ki for human D3 receptor transfected in HEK293 cell membrane. Type of data set: cell-based.
The target in data set [4] is D(3) dopamine receptor (Homo sapiens, UniProt P35462). Briefly: Displacement of [3H]spiperone from human D3 receptor transfected in HEK293 cell membrane measured after 50 mins by competitive radioligand binding analysis. Type of data set: cell membranes. On the technique in general: In a radioligand displacement assay an active substance lowers the binding of a labelled ligand.

The target of data set [5] is D(2) dopamine receptor (Homo sapiens, UniProt P14416). Description: Displacement of [3H]spiperone from human D2 receptor transfected in HEK293 cell membrane measured after 50 mins by competitive radioligand binding analysis. Format: cell membranes.
Data set [6] can be described thus: Toxicity in naloxone-induced withdrawal symptoms in morphine-dependent mouse model assessed as mortality at 50 mg/kg, ip administered 60 mins prior to naloxone injection. Format: organism-based. The following applies: in vivo, 1 h.
Data set [7] can be described thus: Toxicity in naloxone-induced withdrawal symptoms in morphine-dependent mouse model assessed as slow crawling at 50 mg/kg, ip administered 60 mins prior to naloxone injection. Conditions: in vivo, 1 h. Format: organism-based.
A short description of data set [8]: Toxicity in naloxone-induced withdrawal symptoms in morphine-dependent mouse model assessed as inability to bounce at 50 mg/kg, ip administered 60 mins prior to naloxone injection. Format: organism-based. Conditions: in vivo, 1 h.

Sequence of D(2) dopamine receptor (P14416 whole entry): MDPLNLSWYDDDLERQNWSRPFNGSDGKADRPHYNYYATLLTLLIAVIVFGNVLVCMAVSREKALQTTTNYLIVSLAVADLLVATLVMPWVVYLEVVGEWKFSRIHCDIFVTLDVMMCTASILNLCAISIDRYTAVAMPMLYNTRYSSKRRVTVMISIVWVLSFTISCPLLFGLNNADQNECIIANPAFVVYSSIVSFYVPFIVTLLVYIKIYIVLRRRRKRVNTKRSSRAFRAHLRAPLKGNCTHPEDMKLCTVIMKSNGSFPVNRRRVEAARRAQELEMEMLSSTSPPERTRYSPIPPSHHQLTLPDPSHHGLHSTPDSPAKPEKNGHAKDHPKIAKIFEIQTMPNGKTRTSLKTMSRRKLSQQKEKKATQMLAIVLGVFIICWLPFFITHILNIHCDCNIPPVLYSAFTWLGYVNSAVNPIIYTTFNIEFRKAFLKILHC
Sequence of D(3) dopamine receptor (P35462 whole entry): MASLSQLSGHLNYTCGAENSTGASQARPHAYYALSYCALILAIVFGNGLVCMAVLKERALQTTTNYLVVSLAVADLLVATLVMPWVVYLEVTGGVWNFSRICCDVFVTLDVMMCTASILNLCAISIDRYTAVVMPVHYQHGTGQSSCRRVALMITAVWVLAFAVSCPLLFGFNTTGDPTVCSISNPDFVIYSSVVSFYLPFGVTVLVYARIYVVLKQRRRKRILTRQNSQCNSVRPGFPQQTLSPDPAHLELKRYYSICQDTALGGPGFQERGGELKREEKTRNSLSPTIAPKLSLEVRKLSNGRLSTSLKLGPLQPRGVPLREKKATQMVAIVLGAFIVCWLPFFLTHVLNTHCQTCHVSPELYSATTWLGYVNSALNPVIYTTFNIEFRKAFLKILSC

Consider `O=C(NCCCCN1CCO[C@@H]2c3ccccc3OC[C@H]21)c1ccco1` (racemic), for which, in data set [1], the result was Active. The Activity entry in data set [2] and in data set [6] was “Toxic” throughout. The Ratio Ki in data set [3] came to 73. The inhibition constant (Ki) in data set [4] amounted to 11.7 nM; in data set [5], 853 nM.

As for `COc1ccc2c(c1)[C@H]1OCCN(CCCCNC(=O)c3cccs3)[C@@H]1CO2` (racemic), the Activity result in data set [7], in data set [2] and in data set [8] was “Toxic” each time. Besides, in data set [3], the Ratio Ki was found to be 122. Moreover, the values for the Ki in data set [4] and in data set [5] were 6.58 nM and 803 nM, respectively.

In the case of `COc1ccc2c(c1)[C@H]1OCCN(CCCCNC(=O)c3ccc(Cl)cc3)[C@@H]1CO2` (racemic), the Ratio Ki in data set [3] was 75. The Ki turned out to be 12.9 nM in data set [4] and 967 nM in data set [5]. Also, the Activity entry in data set [6] was “Toxic”.
